The values below come from article PMC10999543, “Identification of kinase modulators as host-directed therapeutics against intracellular methicillin-resistant Staphylococcus aureus” (Frontiers in Cellular and Infection Microbiology, 2024).

Like-named read-outs stand apart in the source and are kept apart here.

One data set relates to intracellular MRSA. It counts as cell-based, Staphylococcus aureus. The conditions noted are these: for %GFP+ rep 1 / %GFP+ rep 2 / %GFP+ rep 3: PKIS compound screen raw data; for %GFP+ rep 1 / %GFP+ rep 2 / %GFP+ rep 3 / z-scoreMRSA+ mean / z-scoreMRSA+ rep 1 / z-scoreMRSA+ rep 2 / z-scoreMRSA+ rep 3: MRSA-infected HeLa cells; for %GFP+ rep 1 / z-scoreMRSA+ rep 1: replicate 1; for %GFP+ rep 2 / z-scoreMRSA+ rep 2: replicate 2; for %GFP+ rep 3 / z-scoreMRSA+ rep 3: replicate 3; for z-scoreMRSA+ mean: mean of 3 replicates. The essentials:
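HeLa cells infected with GFP-MRSA (MOI ~6.8), gentamicin-cleared, then incubated overnight at 37°C with inhibitors plus 5 µg/ml gentamicin; DMSO as negative control, triplicates. Flow cytometry gave % GFP-positive cells and cell count (viability surrogate); hits by plate z-score (MRSA ≤ -2, HeLa count ≥ -3).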

A further data set deals with HeLa cells. Put plainly: Compound screen by flow cytometry: HeLa cell count as surrogate readout of cell viability (z-scoreHeLa). It counts as cell-based, human. Conditions: for cell count rep 1 / cell count rep 2 / cell count rep 3: PKIS compound screen raw data; for cell count rep 1 / cell count rep 2 / cell count rep 3 / z-scoreHeLa mean / z-scoreHeLa rep 1 / z-scoreHeLa rep 2 / z-scoreHeLa rep 3: HeLa cell count; for cell count rep 1 / z-scoreHeLa rep 1: replicate 1; for cell count rep 2 / z-scoreHeLa rep 2: replicate 2; for cell count rep 3 / z-scoreHeLa rep 3: replicate 3; for z-scoreHeLa mean: mean of 3 replicates. A digest of the protocol:
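HeLa cells were infected with GFP-MRSA (mean MOI 6.8 ± 4.6) for 1 h, and extracellular bacteria were killed with 30 µg/ml gentamicin. Cells were then incubated overnight with kinase inhibitors in 5 µg/ml gentamicin, in triplicate against DMSO controls. Flow-cytometric cell count served as a viability surrogate, expressed as a plate z-score.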
On the technique in general: Flow cytometry measures light scatter and fluorescence of single cells or particles in a stream.

Setting [1] is: Yes/No: effect without cell death.
Setting [2] is: PKIS compound screen, Yes/No call (effect without cell death).
[3] abbreviates: PKIS compound screen, Yes/No call on z-scoreMRSA+.
The mark [4] stands for this setting: PKIS compound screen, Yes/No call on z-scoreHeLa.

Turning to `CC(=O)N1CCN(c2ccc(Nc3nccc(-c4sc(C(C)C)nc4-c4cccc(NS(=O)(=O)c5cccc(Cl)c5)c4)n3)cn2)CC1` [GSK1660437A], in the data set on intracellular MRSA, the “%GFP+ rep 1” value is recorded as 26.9%, the “%GFP+ rep 2” value came to 24.1% and the “%GFP+ rep 3” value worked out at 23.6%. For the same compound, in the data set with intracellular MRSA (Yes/No call from z-scoreMRSA+), the effect entry is “No”. Besides, the hit entry with intracellular MRSA (setting [1]) is “No”. Further, in the data set on intracellular MRSA (compound screen), the “z-scoreMRSA+ mean” value came out at 0.39, the “z-scoreMRSA+ rep 1” value is given as 0.38, the “z-scoreMRSA+ rep 2” value came to 0.36 and the “z-scoreMRSA+ rep 3” value is recorded as 0.42. Besides, in the data set on HeLa cells, the “cell count rep 1” value is on record as 4478, the “cell count rep 2” value came out at 3506 and the “cell count rep 3” value is listed as 4504. For the same compound, the cell death result in the data set on HeLa cells (Yes/No call from z-scoreHeLa) was “No”. Besides, in the data set on HeLa cells (compound screen), the z-scoreHeLa mean is -0.33, the “z-scoreHeLa rep 1” value came to 0.09, the “z-scoreHeLa rep 2” value is reported as -0.61 and the “z-scoreHeLa rep 3” value is reported as -0.46.
Regarding `COc1cc2ncn(-c3cc(OCc4ccccc4C(F)(F)F)c(C(=O)N(C)C)s3)c2cc1OC` [GSK1030062A], in the data set with intracellular MRSA, the “%GFP+ rep 1” value stood at 17.3%, the “%GFP+ rep 2” value is reported as 19.4% and the “%GFP+ rep 3” value is reported as 19.3%. In addition, in the data set with intracellular MRSA (PKIS compound screen), the “z-scoreMRSA+ mean” value is on record as -0.02, the “z-scoreMRSA+ rep 1” value is recorded as -0.18, the “z-scoreMRSA+ rep 2” value is on record as 0.26 and the “z-scoreMRSA+ rep 3” value is given as -0.15. The hit result with intracellular MRSA (setting [2]) is reported as “No”. For the same compound, in the data set with intracellular MRSA (setting [3]), the effect result was “No”. In the data set with HeLa cells, the “cell count rep 1” value is listed as 10049, the “cell count rep 2” value was found to be 31389 and the “cell count rep 3” value amounted to 32107. Besides, in the data set on HeLa cells (PKIS compound screen), the z-scoreHeLa mean was -1.17, the “z-scoreHeLa rep 1” value was -1.53, the “z-scoreHeLa rep 2” value was -0.63 and the “z-scoreHeLa rep 3” value is -1.34. The cell death entry in the data set on HeLa cells (setting [4]) is listed as “No”.
Regarding `O=C(Nc1n[nH]c2cc(-c3cccs3)ccc12)C1CC1` [SB-731284], in the data set with intracellular MRSA, the “%GFP+ rep 1” value is listed as 22.6%, the “%GFP+ rep 2” value is listed as 23.6% and the “%GFP+ rep 3” value turned out to be 20.0%. Moreover, in the data set with intracellular MRSA (Yes/No call from z-scoreMRSA+), the effect result is listed as “No”. In addition, the hit entry in the data set with intracellular MRSA (setting [1]) is “No”. Moreover, in the data set on intracellular MRSA (compound screen), the “z-scoreMRSA+ mean” value is recorded as -0.35, the “z-scoreMRSA+ rep 1” value was -0.62, the “z-scoreMRSA+ rep 2” value was determined as 0.24 and the “z-scoreMRSA+ rep 3” value is -0.66. In addition, in the data set on HeLa cells, the “cell count rep 1” value stood at 2848, the “cell count rep 2” value came to 2463 and the “cell count rep 3” value is 2761. The cell death result in the data set with HeLa cells (Yes/No call from z-scoreHeLa) is “No”. Moreover, in the data set with HeLa cells (compound screen), the z-scoreHeLa mean is -1.36, the “z-scoreHeLa rep 1” value is on record as -1.08, the “z-scoreHeLa rep 2” value is given as -1.41 and the “z-scoreHeLa rep 3” value is -1.57.
In the case of `COc1cc(C)c(N(C)C(=O)CN(C)C)cc1Nc1nc(Nc2cccc(F)c2C(N)=O)c2cc[nH]c2n1` [GSK2219385A], in the data set with intracellular MRSA, the “%GFP+ rep 1” value amounted to 15.2%, the “%GFP+ rep 2” value worked out at 16.3% and the “%GFP+ rep 3” value was 17.5%. Moreover, in the data set with intracellular MRSA (PKIS compound screen), the “z-scoreMRSA+ mean” value was -0.74, the “z-scoreMRSA+ rep 1” value is -0.84, the “z-scoreMRSA+ rep 2” value was -0.67 and the “z-scoreMRSA+ rep 3” value was -0.70. Besides, the hit entry with intracellular MRSA (setting [2]) is “No”. In addition, the effect entry in the data set on intracellular MRSA (setting [3]) is recorded as “No”. Besides, in the data set on HeLa cells, the “cell count rep 1” value is 14421, the “cell count rep 2” value is given as 25742 and the “cell count rep 3” value is on record as 38560. Further, in the data set on HeLa cells (PKIS compound screen), the z-scoreHeLa mean is reported as -0.95, the “z-scoreHeLa rep 1” value is given as -0.86, the “z-scoreHeLa rep 2” value was -1.69 and the “z-scoreHeLa rep 3” value was -0.31. For the same compound, the cell death result with HeLa cells (setting [4]) is “No”.
